Source: PMC9103758 (International Journal of Molecular Sciences, 2022)

Legend:
Type in all cases: cell-based
[1] = biological target: T1, ANO1 (Homo sapiens, UniProt Q5XXA6, DEL476-501); test: YFP fluorescence quenching assay for ANO1 activity in FRT-ANO1 cells; details: ATP 100 μM, n = 4
T1 construct: expressed in transfected cells; host or cells: Fisher rat thyroid (FRT) cells; The YFP assay uses FRT-ANO1-YFP cells, which also carry the halide sensor
T1 sequence (Q5XXA6 with tags, fused parts or gaps isoform Q5XXA6-5 DEL539-564): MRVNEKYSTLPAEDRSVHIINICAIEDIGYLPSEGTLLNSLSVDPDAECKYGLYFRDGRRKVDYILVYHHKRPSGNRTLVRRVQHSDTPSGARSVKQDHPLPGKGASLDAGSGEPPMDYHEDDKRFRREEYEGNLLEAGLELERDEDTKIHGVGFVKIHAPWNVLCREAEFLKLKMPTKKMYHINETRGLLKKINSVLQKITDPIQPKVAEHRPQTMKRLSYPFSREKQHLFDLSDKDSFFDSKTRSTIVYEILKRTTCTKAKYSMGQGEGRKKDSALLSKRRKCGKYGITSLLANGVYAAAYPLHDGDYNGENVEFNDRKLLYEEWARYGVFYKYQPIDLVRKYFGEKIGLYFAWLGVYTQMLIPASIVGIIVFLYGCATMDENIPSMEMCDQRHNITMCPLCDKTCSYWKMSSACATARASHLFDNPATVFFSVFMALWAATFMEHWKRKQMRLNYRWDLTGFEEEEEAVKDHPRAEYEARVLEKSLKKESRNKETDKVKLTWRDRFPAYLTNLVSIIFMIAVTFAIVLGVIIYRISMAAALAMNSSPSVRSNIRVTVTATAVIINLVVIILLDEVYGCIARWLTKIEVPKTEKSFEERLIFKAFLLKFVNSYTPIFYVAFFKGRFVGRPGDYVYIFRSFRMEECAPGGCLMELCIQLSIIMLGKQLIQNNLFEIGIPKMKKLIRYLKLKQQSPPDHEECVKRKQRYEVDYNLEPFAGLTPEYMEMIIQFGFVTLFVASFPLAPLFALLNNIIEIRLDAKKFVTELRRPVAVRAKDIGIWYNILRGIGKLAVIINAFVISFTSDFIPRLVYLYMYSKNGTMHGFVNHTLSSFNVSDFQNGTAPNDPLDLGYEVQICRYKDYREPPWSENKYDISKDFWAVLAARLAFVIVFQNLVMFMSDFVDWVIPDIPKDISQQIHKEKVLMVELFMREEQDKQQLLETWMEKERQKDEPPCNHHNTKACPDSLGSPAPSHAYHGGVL
Description: Figure 2 Inhibitory effects of VI-101, VI-201 and VI-301 on VRAC and ANO1. (A–C) Representative YFP fluorescence traces for VRAC activity. LN215 cells were treated with the indicated concentrations of VI-101, VI-201 and VI-301 with hypotonic solution for 5 min. (D) Dose-response curve of VRAC inhibition (mean ± S.E., n = 4). (E–G) Representative YFP fluorescence traces for ANO1 activity. […]. (H) Dose-response curve of ANO1 inhibition (mean ± S.E., n = 4).
Human ANO1(abc) expressing Fisher rat thyroid (FRT) cells, ANO2 expressing FRT cells, and human CFTR expressing FRT cells were cultured as described in a previous study. LN215 cells were stably transfected with the halide sensor YFP-F46L/H148Q/I152 and NIH-3T3 cells cultured in DMEM were supplemented with 10% FBS, 2 mM L-glutamine, 100 units/mL penicillin, and 100 μg/mL streptomycin. HEK293T cells were stably transfected with the human Kv11.1 (hERG) and cultured in DMEM supplemented with 10% FBS, 2 mM L-glutamine, 100 units/mL penicillin, and 100 μg/mL streptomycin. PC3, HT29, and HeLa cells were stably transfected with the halide sensor YFP-F46L/H148Q/I152 and cultured in RPMI 1640 supplemented with 10% FBS, 2 mM L-glutamine, 100 units/mL penicillin, and 100 μg/mL streptomycin. […]

[2] = biological target: T1, ANO1; test: Apical membrane current of ANO1 in FRT cells expressing human ANO1
Description: (A) Representative Fluo4 fluorescence traces from 3 independent experiments in FRT cells. […] (B,C) Representative apical membrane currents from 3–4 independent experiments in FRT cells expressing human ANO1. […] (D) Representative YFP fluorescence traces in FRT cells expressing human ANO2. […] (E) Representative Fluo4 fluorescence traces from 3 independent experiments in FRT cells. Cells were pretreated with DCPIB for 10 min followed by application of 100 μM ATP. (F) Representative apical membrane currents in FRT cells expressing human ANO1.
Snapwell inserts containing ANO1(abc) or CFTR-expressing FRT cells were mounted in Ussing chambers (Physiological Instruments, San Diego, CA). The basolateral hemichamber was filled with buffer solution (in mM): 120 NaCl, 5 KCl, 1 MgCl2, 1 CaCl2, 10 D-glucose, 2.5 HEPES, and 25 NaHCO3 (pH 7.4). The apical hemichamber was filled with buffer solution (in mM): 60 NaCl, 60 Na-gluconate, 5 KCl, 1 MgCl2, 1 CaCl2, 10 D-glucose, 2.5 HEPES, and 25 NaHCO3 (pH 7.4). FRT cells were bathed for a 10 min stabilization period and gassed with 5% CO2 and 95% O2 at 37 °C. The apical membrane current was recorded with an EVC4000 Multi-Channel V/I Clamp (World Precision Instruments, Sarasota, FL, USA) and a PowerLab 4/35 (AD Instruments, Castle Hill, Australia).

[3] = biological target: T2, hERG K+ channel (Homo sapiens, UniProt Q12809); test: FluxOR thallium flux assay in HEK293T cells expressing hERG
T2 construct: expressed in transfected cells; called HEK293
Description: (C) Summary of dose-response (mean ± S.E., n = 5). […] (F) Summary of dose−response (mean ± S.E., n = 6).
HEK293 cells stably expressing human Kv11.1 (hERG) were cultured in 96-well plates. After 48 h, the cells were incubated at 28 °C for 4 h to increase the membrane expression of hERG. The culture medium was replaced with a 80 μL/well of FluxOR (Invitrogen, Waltham, MA, USA) loading buffer and incubated for 1 h at 37 °C in the dark. After removing the loading buffer, 100 μL of assay buffer was added to each well. […] FluxOR fluorescence (excitation/emission: 490/525 nm) was recorded for 4 s before the addition of 20 μL of stimulus buffer containing thallium ions, and the fluorescence was recorded. FluxOR fluorescence was recorded and analyzed using the FLUOstar Omega microplate reader (BMG Labtech, Ortenberg, Germany) and the MARS Data Analysis Software (BMG Labtech, Ortenberg, Germany). All buffers were prepared according to the manufacturer’s instructions.

T2 sequence (Q12809 whole entry): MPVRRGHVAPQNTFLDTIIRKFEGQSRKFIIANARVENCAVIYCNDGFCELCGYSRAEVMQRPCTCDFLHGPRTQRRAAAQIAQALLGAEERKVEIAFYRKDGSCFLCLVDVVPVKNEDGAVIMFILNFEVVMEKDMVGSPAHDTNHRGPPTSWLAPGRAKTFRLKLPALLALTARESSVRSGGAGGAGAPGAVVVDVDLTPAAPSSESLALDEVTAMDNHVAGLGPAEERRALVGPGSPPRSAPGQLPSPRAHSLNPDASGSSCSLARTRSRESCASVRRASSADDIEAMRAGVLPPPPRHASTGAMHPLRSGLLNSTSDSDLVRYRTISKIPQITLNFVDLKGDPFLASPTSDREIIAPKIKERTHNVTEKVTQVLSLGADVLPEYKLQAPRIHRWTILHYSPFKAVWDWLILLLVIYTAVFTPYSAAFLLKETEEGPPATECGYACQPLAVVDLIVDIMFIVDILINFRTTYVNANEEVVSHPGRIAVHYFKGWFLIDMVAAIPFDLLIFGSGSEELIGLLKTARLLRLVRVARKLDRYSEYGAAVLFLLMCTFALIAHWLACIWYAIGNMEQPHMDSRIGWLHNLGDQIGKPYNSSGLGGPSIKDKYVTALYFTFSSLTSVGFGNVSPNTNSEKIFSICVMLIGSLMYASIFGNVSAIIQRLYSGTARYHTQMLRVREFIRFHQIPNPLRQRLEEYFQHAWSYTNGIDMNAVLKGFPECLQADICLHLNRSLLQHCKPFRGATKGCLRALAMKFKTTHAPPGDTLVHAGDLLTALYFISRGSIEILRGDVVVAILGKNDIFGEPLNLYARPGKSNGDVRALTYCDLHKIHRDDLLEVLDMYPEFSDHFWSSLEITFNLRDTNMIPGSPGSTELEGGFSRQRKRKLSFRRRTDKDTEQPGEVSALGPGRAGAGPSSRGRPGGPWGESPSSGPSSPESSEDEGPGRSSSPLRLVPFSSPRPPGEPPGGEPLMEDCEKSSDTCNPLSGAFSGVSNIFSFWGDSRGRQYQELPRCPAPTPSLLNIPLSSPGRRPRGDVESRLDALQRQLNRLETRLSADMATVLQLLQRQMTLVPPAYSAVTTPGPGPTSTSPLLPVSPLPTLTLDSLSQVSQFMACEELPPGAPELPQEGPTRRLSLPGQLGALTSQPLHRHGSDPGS

## COc1cccc(C(c2c(O)c3ccccc3oc2=O)c2c(O)c3ccccc3oc2=O)c1O [VI-116, 3,3′-((2-hydroxy-3-methoxyphenyl)methylene)bis(4-hydroxy-2H-chromen-2-one)]
[1]
  IC50: 39.1 µM
[2]; 10 μM
  effect on ANO1 channel activity: minimal effect
[2]; FRT cells expressing human ANO1, 3 μM Eact
  effect on ANO1 activation by Eact (apical membrane current): did not alter
[2]; FRT cells expressing human ANO1, 100 μM ATP
  effect on ANO1 activation by ATP (apical membrane current): did not alter
[3]; 10 μM
  effect on hERG K+ channel activity: minimal inhibitory effect
[3]; thallium flux, HEK293T cells expressing hERG, n = 6
  IC50: 89.6 µM
